Source: publication PMC5309217, “Divergent Soybean Calmodulins Respond Similarly to Calcium Transients: Insight into Differential Target Regulation” (Frontiers in Plant Science, 2017)

Assays:
[1] = Steady-state Ca^2+ sensitivity of CaMs in the presence of NADK peptide; assay type: binding; settings: vs MLCK peptide
Method: (§1) The steady-state fluorescence measurements were performed using a Perkin-Elmer LS55 spectrofluorimeter at 20°C. The titration buffer consisted of 200 mM MOPS, 150 mM KCl, 2 mM EGTA (pH 7.0) ([Tikunova et al., 2002], [2010]; [Tikunova and Davis, 2004]). […] The free Ca^2+ concentration was calculated using the EGCA02 program by [Robertson and Potter (1984)]. The free Mg^2+ concentration was calculated using the MaxChelator program ([Bers et al., 2010]). Each reported Kd represents an average of at least three successive titrations ± standard error and fit with the Hill equation as previously described ([George et al., 1996]).
(§2) The Ca^2+ titrations in the presence of Mg^2+ were performed as described above with the addition of 3 mM Mg^2+ to the titration buffer.

[2] = molecular target: T1, CaM binding domain of Arabidopsis thaliana NADK2 (Arabidopsis thaliana, UniProt Q9C5W3); assay: NADK peptide affinity for CaMs (intrinsic Trp of the peptide)
T1 construct: purchased Ohio Peptide LLC (Powell, OH); host or cells: chemical synthesis
Method: as §1, §2

Substance	effect at sensitizing the CaMs to Ca^2+ compared to MLCK [1]	binding of NADK peptide to CaMs in the absence of Ca^2+ ([2]; absence of Ca^2+, data not shown)	affinity of NADK peptide for Ca^2+-saturated CaMs compared to MLCK ([2]; vs MLCK peptide)	Kd ([2]; read-out: NADK peptide affinity (Kd) for Ca^2+-saturated CaM, WT CaM titrated into 1 μM NADK peptide, 100 μM Ca^2+ (pCa = 4), 200 mM MOPS, 150 mM KCl, 2 mM EGTA, pH 7.0, 20°C, mean ± SE of at least three titrations)
IYVHSKEGVWRTSAMVSRWK [NADK peptide]	substantially weaker effect	did not bind	weaker affinity	
sCaM4: soybean CaM isoform 4; stress-induced CaM found in the soybean				760 ± 70 nM
